Tests used:
[1] = test system: oozing ear channel; test: Instillation/rinsing of the oozing ear channel with NCT solution after tympanoplasty (case reports); type: in vivo, human
Source text: Rinsing the ear channel with NCT solution provokes in general a drying of the ear channel and the tympanoplastic within 1-2 days.
A human patient with a traumatic perforation of the tympanic membrane was provided with a tympanoplasty. After removing incrustations and granulation tissue, the destroyed tympanic membrane was excised and substituted by a fascia temporalis. After taking away the tamponade, the microbiological culture of a swab from the reconstructed tympanic membrane and the ear channel was sterile. Subsequently, the oozing ear channel was treated one time daily for two days by instillation of 2 mL of aqueous 1% NCT solution. […] The complete epithelization was achieved 3 days earlier than by the conventional treatment with fuchsine.
A human patient suffering from a perforation of the tympanic membrane caused by a chronic inflammation of the middle ear received tympanoplasty. After removing incrustations and granulation tissue, the destroyed tympanic membrane was excised and substituted by a fascia temporalis. After taking away the tamponade, the microbiological culture of a swab from the reconstructed tympanic membrane and the ear channel was sterile. Subsequently, the oozing and swollen ear channel was treated one time daily for five days by instillation of 2 mL of aqueous 1% NCT solution. […] The complete epithelization was achieved 3 days earlier than by the conventional treatment with fuchsine.

[2] = test system: open leg ulcer with fibrous coating; test: Wound dressing soaked with NCT solution on open leg ulcer with fibrous coating (case report); type: in vivo, human; details: single patient
Method: A human patient suffering from an open leg ulcer with fibrous coating caused by a burn accident was treated two times daily with wound dressing soaked with aqueous 1% NCT solution. […] Microbiological cultures of swabs before and after therapy were sterile.

[3] = test system: outer ear canal; test: Pilot study (open phase IIa), postoperative irrigation of external auditory canal after tympanoplasty: efficacy; type: in vivo, human; details: 12 patients
Method: Local irrigations of the external auditory canal with 3 ml of 1% N-chlorotaurine solution were performed once daily until the canal was dry.
An open phase IIa study was performed in 12 patients after tympanoplasty. They received a single-shot antibiotic therapy with 2 g Spizef (cefotiam) i.v. perioperatively.
(§1) After removing the ear-tamponade, which remained in place for 2 to 3 weeks postoperatively, 3 ml of the 1% aqueous NCT solution was applied once daily to the outer ear canal. The endpoint of the treatment was defined as a completely dry canal, corresponding to a clinical score of zero (see below for scoring).
The primary criterion for the judgement of the status of the external meatus was a six-scale clinical score (0-5) based on visual observation via ear microscopy (zero=dry outer ear canal; 5=moist outer ear canal with inflammation).
Clinical examination of the outer ear canal was performed daily for detection of moisture, signs of infection, and judgement of epithelisation of the neo-tympanon.
A completely dry external meatus (score zero) was considered as the endpoint criterion for the termination of the study.
Moisture and inflammation of the external auditory canal during and after irrigation with NCT were compared to those before treatment using the Wilcoxon test. P-values <0.05 were considered to indicate statistical significance. Due to the limited number of patients no corrections for multiple comparisons were applied.

[4] = Pilot study (open phase IIa) after tympanoplasty: tolerability; type: in vivo, human; details: 12 patients
Method: as §1
The second criterion was subjective pain, ascertained by a visual analogue scale.
Before and at the end of the study an audiogram was performed in all patients.
All subjects completed the study.

[5] = pH of aqueous NCT solution; type: physicochemical; details: no buffers
[6] = Storage stability of aqueous NCT solution; type: physicochemical; details: 1% (55 mM) aqueous solution stored at 2-4° C.
Method: Pure NCT as a crystalline sodium salt was dissolved in sterile distilled water to a concentration of 1% (55 mM). Purity was verified by iodometric titration and spectrophotometry. […] Solutions were stored at 2-4° C., where they are stable for 1 year, and allowed to reach room temperature before application to the patients.

[7] = single patient after tympanoplasty, 2 mL aqueous 1% NCT solution one time daily

Compound: O=S(=O)(O)CCNCl [NCT, N-chlorotaurine]
- period of oozing subsequent to operations ([1]; e.g. otoplastic operations, general statement): reduced the period of oozing
- drying of the ear channel and the tympanoplastic ([1]; rinsing the ear channel with NCT solution, general statement): 1 to 2 days
- time after which oozing ceased ([1]; single patient after tympanoplasty, 2 mL aqueous 1% NCT solution instilled one time daily): three
- time after which swelling ceased ([1]; single patient after tympanoplasty, 2 mL aqueous 1% NCT solution instilled one time daily for five days): two
- complete epithelization achieved earlier than by conventional treatment with fuchsine [1, 7]: 3 days
- incorporation of the temporal fascia [1, 7]: proceeded without problems
- treatment time after which fibrous coating disappeared ([2]; burn accident, dressing soaked with aqueous 1% NCT solution two times daily): three
- microbiological cultures of swabs before and after therapy ([2]; aqueous 1% NCT solution two times daily): sterile
- healing process ([2]; dressing soaked with aqueous 1% NCT solution two times daily): went on without problems
- epithelisation of the new tympanon on ear microscopy ([3]; 3 ml 1% NCT once daily): proceeded regularly without granulation
- infection in the postoperative course ([3]; 3 ml 1% NCT once daily): No infection occurred
- necessary time for achieving a score of zero (range) ([3]; 3 ml 1% NCT once daily): 2 to 5 days
- time needed for complete epithelisation (mean±SD) ([3]; 3 ml 1% NCT once daily): 22.6 ± 3.5 days
- time needed for complete epithelisation (range) ([3]; 3 ml 1% NCT once daily): 18 to 31 days
- average clinical score (0-5) ([3]; 3 ml 1% NCT once daily, days 2-5 vs day 1, Wilcoxon p=0,001-0,002): decreased daily
- necessary time for achieving a score of zero (mean±SD) ([3]; 3 ml 1% NCT once daily, score zero = dry outer ear canal): 2.75 ± 0.87 days
- drying of the outer ear canal ([3]; 3 ml 1% aqueous NCT once daily): Rapid drying of the outer ear canal was detected in all patients
- allergic reactions during the whole period of treatment ([4]; 3 ml 1% NCT once daily): no signs of allergic reactions
- damage to the inner ear (audiogram before and after treatment) ([4]; 3 ml 1% NCT once daily): no signs of damage to the inner ear
- dizziness or nystagmus ([4]; 3 ml 1% NCT once daily): No dizziness or nystagmus occurred
- subjective pain (visual analogue scale) ([4]; 3 ml 1% NCT once daily): without occurrence of any pain
- tolerability of therapy ([4]; 3 ml 1% NCT once daily to outer ear canal): tolerated very well
- pH of aqueous solutions [5]: 8
- stability of solutions on storage [6]: 1 year

— patent US20070010582A1, “Use of N-chlorotaurine for treatment of oozing tissue deficiencies” (priority 2005, published 2007)
